These results are taken from publication PMC6469676 (SLAS discovery : advancing life sciences R & D, 2018).

The viability is a read-out of living cells in per cent, often relative to untreated cells. Usually IC50 stands for the concentration that inhibits the measured activity by half.

Data set [1] deals with SNV^R18 on DAF-functionalized beads. The format is binding.
A further data set in a line: in vitro. The conditions noted are these: African green monkey.
The subject of the next data set is SNV. The format is cell-based, Sin Nombre virus.
Another data set deals with integrin αIIbβ3 (Homo sapiens, UniProt P05106+P08514). The format is cell-based.
integrin αIIbβ3, sequence (P08514 32-887 limits assumed): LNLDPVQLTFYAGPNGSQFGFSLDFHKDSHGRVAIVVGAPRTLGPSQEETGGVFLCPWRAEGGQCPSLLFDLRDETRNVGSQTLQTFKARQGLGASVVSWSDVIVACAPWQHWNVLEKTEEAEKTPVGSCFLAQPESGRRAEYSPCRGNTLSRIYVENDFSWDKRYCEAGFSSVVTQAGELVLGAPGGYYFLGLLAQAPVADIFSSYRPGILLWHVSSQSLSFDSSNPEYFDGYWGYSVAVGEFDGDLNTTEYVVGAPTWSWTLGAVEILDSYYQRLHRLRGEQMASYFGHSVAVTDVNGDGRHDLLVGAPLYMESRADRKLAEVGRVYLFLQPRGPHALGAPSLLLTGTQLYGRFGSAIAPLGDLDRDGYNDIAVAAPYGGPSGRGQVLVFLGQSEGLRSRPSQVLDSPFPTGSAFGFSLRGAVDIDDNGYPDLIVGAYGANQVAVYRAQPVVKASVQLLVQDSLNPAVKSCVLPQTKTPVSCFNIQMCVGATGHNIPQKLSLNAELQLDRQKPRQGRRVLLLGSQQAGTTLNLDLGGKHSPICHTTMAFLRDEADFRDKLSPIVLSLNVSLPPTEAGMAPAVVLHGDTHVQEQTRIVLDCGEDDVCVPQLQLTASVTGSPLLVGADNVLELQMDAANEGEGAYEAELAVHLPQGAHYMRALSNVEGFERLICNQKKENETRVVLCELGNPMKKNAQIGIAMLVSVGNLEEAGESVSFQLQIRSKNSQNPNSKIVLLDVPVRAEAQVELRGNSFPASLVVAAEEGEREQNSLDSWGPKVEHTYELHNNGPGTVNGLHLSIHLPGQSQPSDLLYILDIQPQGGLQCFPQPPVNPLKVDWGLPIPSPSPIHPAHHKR
integrin αIIbβ3, sequence (P08514 891-1039 partner limits assumed): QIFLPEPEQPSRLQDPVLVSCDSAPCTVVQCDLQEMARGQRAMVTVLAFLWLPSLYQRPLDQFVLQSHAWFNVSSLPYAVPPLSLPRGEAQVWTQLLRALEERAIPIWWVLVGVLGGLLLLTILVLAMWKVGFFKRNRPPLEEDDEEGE
integrin αIIbβ3, sequence (P05106 27-788): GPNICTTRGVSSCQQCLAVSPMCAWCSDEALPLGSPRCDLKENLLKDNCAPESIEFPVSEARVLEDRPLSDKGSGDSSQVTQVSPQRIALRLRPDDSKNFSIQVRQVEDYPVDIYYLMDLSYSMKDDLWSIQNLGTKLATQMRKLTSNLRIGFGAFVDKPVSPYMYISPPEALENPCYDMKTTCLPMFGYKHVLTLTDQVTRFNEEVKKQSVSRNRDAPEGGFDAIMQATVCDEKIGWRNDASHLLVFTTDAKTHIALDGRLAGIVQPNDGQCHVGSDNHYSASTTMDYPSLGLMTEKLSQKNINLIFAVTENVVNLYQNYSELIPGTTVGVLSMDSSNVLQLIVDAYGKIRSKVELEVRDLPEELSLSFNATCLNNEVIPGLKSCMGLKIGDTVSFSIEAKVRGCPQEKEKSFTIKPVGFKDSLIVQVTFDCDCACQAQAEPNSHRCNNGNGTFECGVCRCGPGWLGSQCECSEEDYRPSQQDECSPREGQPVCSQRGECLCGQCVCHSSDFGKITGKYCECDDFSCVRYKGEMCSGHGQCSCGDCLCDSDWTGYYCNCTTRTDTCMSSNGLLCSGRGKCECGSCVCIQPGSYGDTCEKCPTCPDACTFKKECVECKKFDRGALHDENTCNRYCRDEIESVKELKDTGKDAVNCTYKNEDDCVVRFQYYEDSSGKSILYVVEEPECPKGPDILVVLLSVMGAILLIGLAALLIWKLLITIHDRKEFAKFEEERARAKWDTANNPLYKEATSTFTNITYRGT
Data set [2] relates to SNV-induced cAMP production in CHO-A24 cells. The format is cell-based.
The subject of a further data set is Sin Nombre virus (SNV). It counts as cell-based. As to conditions: 10 µM.
The test system of a further data set is Hantaan virus (HTN). The format is cell-based. The conditions noted are these: 10 µM.
Data set [3] relates to SNV^F18 bound to Tanoue B cells. The conditions noted are these: read-out: IC50, competition binding vs SNV^F18 bound to Tanoue B cells.

A value given as a limit tells only on which side of the number the result lay.

With `Cc1cc2c(C(C)C)c(O)c(O)c(C=O)c2c(O)c1-c1c(C)cc2c(C(C)C)c(O)c(O)c(C=O)c2c1O` [gossypol], in data set [1], the “koff, drop in bead fluorescence” value is given as ~ 0.25. The viability in “in vitro” is ~30%.

In the case of `O=C(Nc1cc(C(=O)Nc2ccc(S(=O)(=O)O)cc2S(=O)(=O)O)cc(C(=O)Nc2ccc(S(=O)(=O)O)cc2S(=O)(=O)O)c1)Nc1cc(C(=O)Nc2ccc(S(=O)(=O)O)cc2S(=O)(=O)O)cc(C(=O)Nc2ccc(S(=O)(=O)O)cc2S(=O)(=O)O)c1` [NF449], the “reduction of viral N-protein relative to vehicle-treated cells” value in the data set on SNV is listed as > 80%.

As to tocopherol, the “cytopathic effects after 24 hours” value in the data set on Vero E6 cells was “minimal cytopathic effects”.

On to `Cc1c(Cl)cccc1Nc1ccccc1C(=O)O` [tolfenamic acid], for which the “koff, drop in bead fluorescence” value in [1] was ~ 0.25.

`O=C(Nc1ccc([N+](=O)[O-])cc1Cl)c1cc(Cl)ccc1O` [niclosamide]: in “in vitro”, the viability is ~50%.

On to `COC(=O)Nc1nc2ccc(Sc3ccccc3)cc2[nH]1` [fenbendazole], for which the viability in the data set “in vitro” was ~70%.

GRGDSP: the “effect on SNV-induced PAC-1 staining” value at integrin αIIbβ3 was “inhibited PAC1 staining”. The “effect on SNV-stimulated cAMP” value in data set [2] is given as “did not affect SNV-stimulated cAMP response”.

For the compound antimycin, the “effect on SNV-induced PAC-1 staining” value at integrin αIIbβ3 is given as “inhibited PAC-1 staining”. In addition, the “% inhibition of infection by SNV” value with Sin Nombre virus (SNV) was ≥ 80%. Further, in data set [2], the “effect on SNV-stimulated cAMP” value is on record as “inhibited stimulation of cAMP”. The “cytopathic effects after 24 hours” value in the data set with Vero E6 cells was “minimal cytopathic effects”. For the same compound, the “koff, drop in bead fluorescence” value in [1] is given as ~ 0.25. Further, the “% inhibition of infection by HTN” value in the data set with Hantaan virus (HTN) is reported as ≥ 80%. Besides, the IC50 in data set [3] turned out to be 10 µM.
